{"source": "patent US8119667B2", "about": "“Carbonates of fenicol antibiotics” (Schering-Plough Animal Health Corporation, priority 2005, dated 2012)", "key": {"[1]": {"test_system": "naturally occurring bovine respiratory disease (BRD)", "assay": "Therapeutic efficacy of a single SC dose in cattle with naturally occurring bovine respiratory disease", "format": "in vivo", "excerpt": "Therapeutic efficacy of a single dose of Nuflor® (Schering-Plough Animal Health) was compared with a single dose of the prodrug compound of Example 2 after SC administration in cattle suffering from naturally occurring bovine respiratory disease (BRD)."}, "[2]": {"assay": "In vitro enzymatic release of parent florfenicol from prodrugs in bovine serum", "format": "in vitro ADME", "conditions": "37° C.", "excerpt": "The ability of a prodrug derivative of a parent drug molecule to act efficiently in vivo as a source of the free parent drug determines the utility of a particular prodrug for treatment. The prodrug's ability to release the parent drug in vivo, in the presence of endogenous enzymes, can be determined by measuring the systemic levels of the parent drug after administration of the prodrug to the animal. This releasibility can also be assessed in vitro by measuring the release of the parent drug after mixing with animal whole blood, plasma or serum. Selected benzylic carbonate prodrugs of florfenicol were tested for release of florfenicol after in vitro mixing with bovine serum. […] A general trend of more lipophilic carbonates of florfenicol showing higher rates of degradation and release seems to be present among the compounds tested.\n50 microliter of stock solution of carbonate pro-drug (10 mg/mL in DMSO) was added to 5 mL donor bovine serum and mixed. Aliquots of 400 microliter of the resulting solution were transferred into 1.5 mL plastic centrifuge tubes. Each plastic tube was placed into at 37° C. water bath for incubation. Samples were removed at 0, 1, 2, 4, 8, and 24 hours, and after addition of 400 microliter of acetonitrile to stop the reaction, rapidly stirred for 30 seconds. The precipitate was removed by centrifugation on an Eppendorf 5415G at 14000 rpm for 5 minutes. The clear supernatant solution was sampled for the HPLC analysis. The peak area of florfenicol was used to calculate the conversion of the prodrugs."}, "[3]": {"assay": "Solubility in triacetin/benzyl alcohol 2:1 (volume/volume) solvent mixture", "format": "physicochemical", "conditions": "20° C.", "experimental": "Florfenicol parent drug was not soluble in triacetin/benzyl alcohol 2:1 (volume/volume) even at concentrations as low as 10% (weight/volume). […] The combination of prodrug of Example 14 at 275 mg/ml and florfenicol at 100 mg/ml was soluble in triacetin/benzyl alcohol 2:1 (volume/volume) and provided a stable solution with 30% (weight/volume) content of florfenicol (Table 4, supra, entry 12)."}, "[4]": {"assay": "In vivo release of florfenicol: plasma levels after prodrug administration to rats", "set-up": "species or system Rat", "conditions": "IV", "experimental": "The pharmacokinetic profile of active antibiotic after prodrug administration, in vivo, was determined, as follows: • 1. In vivo release of active antibiotic confirmed in two different animal species: • The prodrug compound of Example 18 was administered by an intravenous (“IV”) route to rat and cattle subjects, followed by determination of florfenicol concentrations in the plasma collected over time. • The data of Table 8, below, illustrates the plasma levels of florfenicol that resulted following IV administration of the prodrug compound of Example 18, to both rat and cattle. • 4. Time of release of active moiety: • a."}, "[5]": {"assay": "Syringeability of dosing solutions (dripping-syringe method)", "format": "physicochemical", "conditions": "418 mg/ml (35% weight by volume florfenicol); Triacetin/benzyl alcohol - 2:1; 15° C."}, "Aqueous solubility": {"assay": "Aqueous solubility", "format": "physicochemical", "conditions": "aqueous medium (not further specified)", "experimental": "In some therapeutic applications florfenicol is administered in concentrated organic solution subcutaneously where it is known to form localized depot of the drug which results in the desired sustained release of the drug into the circulation. In such cases solubility of florfenicol in aqueous media represents one of important factors determining the rate of the sustained release. Another important factor affecting the sustained release of florfenicol from the subcutaneous depot site is the concentration of the dosing solution and the solvent composition of the formulation. Apart from the broader range of solvents which can be used for acceptable formulations of florfenicol benzylic carbonate prodrugs these prodrugs also allow a wide range of aqueous solubilities. Solubilities achieved with these prodrugs range from slightly to dramatically lower than that of florfenicol. Reduced aqueous solubilities of such prodrugs may be useful in controlling the rate of dissolution of the prodrug at the subcutaneous depot site and may allow achieving optimized sustained release of the parent drug."}}, "data": [{"smiles": "CCOC(=O)O[C@H](c1ccc(S(C)(=O)=O)cc1)[C@@H](CF)NC(=O)C(Cl)Cl", "note": "[Example 2, (1R,2S)-2-(2,2-dichloroacetamido)-3-fluoro-1-(4-(methylsulfonyl)phenyl)propyl ethyl carbonate]", "values": [{"measurement": "Treatment Failure (on day 10)", "setting": "[1]; single S/C dose equivalent to 40 mg/kg of florfenicol (Nuflor 40 mg/kg; Example 2 48 mg/kg), animals failing out of animals treated", "value": "5 out of 24"}, {"measurement": "Temp. (day 0)", "setting": "[1]; single S/C dose equivalent to 40 mg/kg of florfenicol (Nuflor 40 mg/kg; Example 2 48 mg/kg), day 0", "value": 40.4, "unit": "°C"}, {"measurement": "Temp. (day 3)", "setting": "[1]; single S/C dose equivalent to 40 mg/kg of florfenicol (Nuflor 40 mg/kg; Example 2 48 mg/kg), day 3", "value": 38.8, "unit": "°C"}, {"measurement": "Temp. (day 10)", "setting": "[1]; single S/C dose equivalent to 40 mg/kg of florfenicol (Nuflor 40 mg/kg; Example 2 48 mg/kg), day 10", "value": 38.7, "unit": "°C"}, {"measurement": "efficacy compared with Nuflor", "setting": "[1]; single SC dose, cattle with BRD", "value": "comparable"}, {"measurement": "Florfenicol released from prodrugs (% of total) after treatment with bovine serum", "setting": "[2]; 0 h", "value": "BQL^a"}, {"measurement": "Florfenicol released from prodrugs (% of total) after treatment with bovine serum", "setting": "[2]; 1 h", "value": "BQL"}, {"measurement": "Florfenicol released from prodrugs (% of total) after treatment with bovine serum", "setting": "[2]; 2 h", "value": "BQL"}, {"measurement": "Solubility at selected concentration of contained florfenicol", "setting": "[3]; 10% weight/volume florfenicol", "value": "soluble"}, {"measurement": "Solubility at selected concentration of contained florfenicol", "setting": "[3]; 20% weight/volume florfenicol", "value": "soluble"}, {"measurement": "Solubility at selected concentration of contained florfenicol", "setting": "[3]; 25% weight/volume florfenicol", "value": "soluble"}, {"measurement": "Solubility at selected concentration of contained florfenicol", "setting": "[3]; 30% weight/volume florfenicol", "value": "soluble"}, {"measurement": "Solubility at selected concentration of contained florfenicol", "setting": "[3]; 35% weight/volume florfenicol", "value": "soluble"}, {"measurement": "Solubility at selected concentration of contained florfenicol", "setting": "[3]; 37% weight/volume florfenicol", "value": "soluble"}, {"measurement": "Solubility at selected concentration of contained florfenicol", "setting": "[3]; 40% weight/volume florfenicol", "value": "insoluble"}, {"measurement": "time of release of active antibiotic (florfenicol) after administration", "setting": "[4]", "value": "less than half an hour"}, {"measurement": "melting point", "value": "110 to 112", "unit": "°C"}, {"measurement": "Syringeability measurement: Dripping time", "setting": "[5]", "value": "207 ± 3", "unit": "s"}, {"measurement": "Syringeability measurement: Relative to NUFLOR", "setting": "[5]", "value": 0.89}, {"measurement": "solubility", "setting": "Aqueous solubility", "value": 690, "unit": "µg/mL"}]}]}
